# Assay results as given in patent US20240335541A1, “NANOMATERIALS COMPRISING DIAMINES” (Beam Therapeutics Inc., priority 2021, published 2024).
# What was measured:
# Format in all cases: physicochemical
# [1] = LNP hydrodynamic diameter and PDI by DLS (Example 16 LNPs, Stunner); conditions: Example 16 LNPs: 47.5% Ionizable Lipid: 40% cholesterol: 2.5% PEG-2000 DMG: 10% DPSC, N/P 4-8
# Protocol: (§1) LNPs were prepared with 47.5% Ionizable Lipid (e.g., a compound provided herein): 40% cholesterol: 2.5% PEG-2000 DMG: 10% DPSC and an N/P ratio range of 4-8. LNPs were formed by microfluidic mixing of the lipid and NA solutions using a Precision Nanosystems NanoAssemblr Spark or Benchtop series Instruments, according to the manufacturer's protocol. A ratio of aqueous to organic solvent of approximately 2:1 or 3:1 was maintained during mixing using differential flow rates. After mixing, LNPs were collected, diluted in phosphate buffer saline (PBS) or Tris-buffered saline (TBS) (approximately 1:1 v/v). Further buffer exchange was conducted using dialysis in PBS or TBS at 4° C. for 4 to 24 hours against a 20 kDa filter. After this initial dialysis, each individual LNP preparation was characterized via dynamic light scattering (DLS) to measure the size (e.g., diameter) and polydispersity. LNPs falling within specific diameter and polydispersity ranges were pooled, and further dialyzed against PBS or TBS at 4° C. for 1 to 4 hours against a 100 kDa dialysis cassette. After the second dialysis, LNPs were sterile filtered using 0.22 μm filter and stored at 4° C. for further use.
# LNP hydrodynamic diameter and polydispersity index (PDI) were measured using high throughput dynamic light scattering (DLS) (Stunner, Unchained Labs). LNPs were diluted 1×TBS or PBS to an appropriate concentration and analyzed.
# [2] = LNP encapsulation efficiency by Ribogreen assay (Example 16 LNPs); conditions: Example 16 LNPs: 47.5% Ionizable Lipid: 40% cholesterol: 2.5% PEG-2000 DMG: 10% DPSC, N/P 4-8
# Protocol: as §1
# RNA concentration and encapsulation efficiency were determined by Ribogreen assay (BioTek Synergy LX plate reader).
# [3] = LNP encapsulation efficiency, unlysed vs lysed LNPs, Qubit kit (Example 1 LNPs); conditions: LNPs prepared according to Example 1; total lipid to NA mass ratio 11.7
# Protocol: Concentration of NA was determined by Qubit microRNA kit (for siRNA) or HS RNA kit (for mRNA) per manufacturer's instructions. Encapsulation efficiency was determined by measuring nucleic acid concentration in unlysed and lysed LNPs. Encapsulation efficiency was determined by measuring unlysed and lysed LNPs.
# [4] = LNP hydrodynamic diameter and polydispersity by DLS (Example 1 LNPs); conditions: LNPs prepared according to Example 1, total lipid to NA mass ratio 11.7
# Protocol: LNPs were prepared with a total lipid to NA mass ratio of 11.7. LNPs were formed by microfluidic mixing of the lipid and NA solutions using a Precision Nanosystems NanoAssemblr Spark or Benchtop series Instruments, according to the manufacturers protocol. A ratio of aqueous to organic solvent of approximately 2:1 or 3:1 was maintained during mixing using differential flow rates. After mixing, LNPs were collected, diluted in PBS (approximately 1:1 v/v). Further buffer exchange was conducted using dialysis in PBS at 4° C. for 4 to 24 hours against a 20 kDa filter. After this initial dialysis, each individual LNP preparation was characterized via dynamic light scattering (DLS) to measure the size (e.g., diameter) and polydispersity. In addition, pKa of a subpopulation of LNPs was measured via a 2-(p-toluidino)-6-napthalene sulfonic acid (TNS) assay. LNPs falling within specific diameter and polydispersity ranges are pooled, and further dialyzed against phosphate buffer saline (PBS) at 4° C. for 1 to 4 hours against a 100 kDa dialysis cassette. After the second dialysis, LNPs were sterile filtered using […] filter and stored at 4° C. for further use.
# DLS-LNP hydrodynamic diameter and polydispersity index (PDI) were measured using high throughput dynamic light scattering (DLS) (DynaPro plate reader II, Wyatt). LNPs were diluted 1×PBS to an appropriate concentration and analyzed.
# Lipid nanoparticle components were dissolved in 100% ethanol at specified lipid component molar ratios. Nucleic acid (NA) cargo was dissolved in 10 mM citrate, 100 mM NaCl, pH 4.0, resulting in a concentration of NA cargo of approximately 0.22 mg/mL. In some embodiments, NA cargos included both a functional NA and a reporter DNA barcode mixed at mass ratios of 1:10 to 10:1 functional NA to barcode. LNPs were formulated with a total lipid to NA mass ratio of 11.7. LNPs were formed by microfluidic mixing of the lipid and NA solutions using a Precision Nanosystems NanoAssemblr Spark or Benchtop series Instruments, according to the manufacturer's protocol. A 2:1 or 3:1 ratio of aqueous to organic solvent was maintained during mixing using differential flow rates. After mixing, LNPs were collected, diluted in PBS (approximately 1:1 v/v), and further buffer exchange was conducted using dialysis in PBS at 4° C. for 8 to 24 hours against a 20 kDa filter. After this initial dialysis, each individual LNP formulation was characterized via DLS to measure the size and polydispersity, and the pKa of a subpopulation of LNPs is measured via TNS assay. After dialysis, LNPs were sterile filtered using 0.22 micron sterile filter and stored at 4° C. for further use.
# LNP hydrodynamic diameter and polydispersity index (PDI) were measured using high throughput dynamic light scattering (DLS) (DynaPro plate reader II, Wyatt). LNPs were diluted 1×PBS to an appropriate concentration and analyzed.
Compound,Mean Diameter [1],Mean PDI [1],Mean Encapsulation Efficiency [2],Mean Encapsulation Efficiency [3],Mean Diameter [4],Mean PDI [4]
CC/C=C\CCCCOC(CCC(=O)OCCCCCCN(CCO)CCCN(CCCCCCOC(=O)CCC(OCCCC/C=C\CC)OCCCC/C=C\CC)CCCCCCOC(=O)CCC(OCCCC/C=C\CC)OCCCC/C=C\CC)OCCCC/C=C\CC [Example 7-1],90.2 nm,0.12,80.8%,,,
"CC/C=C\CCCCOC(CCC(=O)OCCCCCCN(CCCCCCOC(=O)CCC(OCCCC/C=C\CC)OCCCC/C=C\CC)CCCN(CCO)CCCCCCCC(=O)OCCCCCCCCC)OCCCC/C=C\CC [Example 7-3, ((3-((2-hydroxyethyl)(8-(nonyloxy)-8-oxooctyl)amino)propyl)azanediyl)bis(hexane-6,1-diyl) bis(4,4-bis(((Z)-oct-5-en-1-yl)oxy)butanoate)]",69.1 nm,0.13,85.1%,,,
"CC/C=C\CCCCOC(CCC(=O)OCCCCCCCN(CCCCCCCOC(=O)CCC(OCCCC/C=C\CC)OCCCC/C=C\CC)CCCN(CCO)CCCCCCCC(=O)OCCCCCCCCC)OCCCC/C=C\CC [Example 7-4, ((3-((2-hydroxyethyl)(8-(nonyloxy)-8-oxooctyl)amino)propyl)azanediyl)bis(heptane-7,1-diyl) bis(4,4-bis(((Z)-oct-5-en-1-yl)oxy)butanoate)]",95.1 nm,0.10,66.1%,97.5%,106.9 nm,15.4%
"CC/C=C\CCCCOC(CCC(=O)OCCCCCCN(CCO)CCCN(CCCCCC(=O)OCCCCCCCCC)CCCCCC(=O)OCCCCCCCCC)OCCCC/C=C\CC [Example 7-5, dinonyl 6,6′-((3-((6-((4,4-bis(((Z)-oct-5-en-1-yl)oxy)butanoyl)oxy)hexyl)(2-hydroxyethyl)amino)propyl)azanediyl)dihexanoate]",81.3 nm,0.12,49.0%,,,
CC/C=C\CCCCOC(CCC(=O)OCCCCCCN(CCO)CCCN(CCCCCCCC(=O)OCCCCCCCCC)CCCCCCCC(=O)OCCCCCCCCC)OCCCC/C=C\CC [Example 7-6],85.7 nm,0.10,46.0%,,,
CC/C=C\CCCCOC(CCC(=O)OCCCCCCN(CCO)CCCN(CCCCCCOC(=O)C(CCCC)CCCCCC)CCCCCCOC(=O)C(CCCC)CCCCCC)OCCCC/C=C\CC (stereo not drawn) [Example 7-7],83.4 nm,0.08,57.4%,,,
CC/C=C\CCCCOC(CCC(=O)OCCCCCCCN(CCO)CCCN(CCCCCCOC(=O)C(CCCC)CCCCCC)CCCCCCOC(=O)C(CCCC)CCCCCC)OCCCC/C=C\CC (stereo not drawn) [Example 7-9],89.2 nm,0.11,69.4%,,,
CC/C=C\CCCCOC(CCC(=O)OCCCCCCCN(CCO)CCN(CCCCCCCOC(=O)CCC(OCCCC/C=C\CC)OCCCC/C=C\CC)CCCCCCCOC(=O)CCC(OCCCC/C=C\CC)OCCCC/C=C\CC)OCCCC/C=C\CC [Example 7-11],,,,96.4%,79.8 nm,9.4%
CC/C=C\CCCCOC(CCC(=O)OCCCCCCN(CCCO)CCN(CCCCCCOC(=O)CCC(OCCCC/C=C\CC)OCCCC/C=C\CC)CCCCCCOC(=O)CCC(OCCCC/C=C\CC)OCCCC/C=C\CC)OCCCC/C=C\CC [Example 7-16],91.3 nm,0.11,81.8%,,,
CC/C=C\CCCCOC(CCC(=O)OCCCCCCCN(CCCO)CCN(CCCCCCCOC(=O)CCC(OCCCC/C=C\CC)OCCCC/C=C\CC)CCCCCCCOC(=O)CCC(OCCCC/C=C\CC)OCCCC/C=C\CC)OCCCC/C=C\CC [Example 7-17],,,,97.2%,85.9 nm,10.8%
CC/C=C\CCCCOC(CCC(=O)OCCCCCCN(CCCO)CCN(CCCCCCOC(=O)C(CCCC)CCCCCC)CCCCCCOC(=O)C(CCCC)CCCCCC)OCCCC/C=C\CC (stereo not drawn) [Example 7-20],97.0 nm,0.17,71.4%,,,
CC/C=C\CCCCOC(CCC(=O)OCCCCCCN(CCCO)CCN(CCCCCCCCCOC(=O)C(CCCC)CCCCCC)CCCCCCCCCOC(=O)C(CCCC)CCCCCC)OCCCC/C=C\CC (stereo not drawn) [Example 7-21],87.1 nm,0.12,60.9%,,,
"CC/C=C\CCCCOC(CCC(=O)OCCCCCCCN(CCCCCCCOC(=O)CCC(OCCCC/C=C\CC)OCCCC/C=C\CC)CCCN(CCO)CCCCCCCCCOC(=O)C(CCCC)CCCCCC)OCCCC/C=C\CC (stereo not drawn) [Example 7-24, ((3-((9-((2-butyloctanoyl)oxy)nonyl)(2-hydroxyethyl)amino)propyl)azanediyl)bis(heptane-7,1-diyl) bis(4,4-bis(((Z)-oct-5-en-1-yl)oxy)butanoate)]",92.7 nm,0.12,72.4%,,,
CC/C=C\CCCCOC(CCC(=O)OCCCCCCCN(CCO)CCCN(CCCCCCCCCOC(=O)C(CCCC)CCCCCC)CCCCCCCCCOC(=O)C(CCCC)CCCCCC)OCCCC/C=C\CC (stereo not drawn) [Example 7-25],92.4 nm,0.13,62.8%,,,
"CC/C=C\CCCCOC(CCC(=O)OCCCCCCCN(CCCCCCCOC(=O)CCC(OCCCC/C=C\CC)OCCCC/C=C\CC)CCN(CCO)CCCCCCCCCOC(=O)C(CCCC)CCCCCC)OCCCC/C=C\CC (stereo not drawn) [Example 7-26, ((2-((9-((2-butyloctanoyl)oxy)nonyl)(2-hydroxyethyl)amino)ethyl)azanediyl)bis(heptane-7,1-diyl) bis(4,4-bis(((Z)-oct-5-en-1-yl)oxy)butanoate)]",82.5 nm,0.12,69.2%,,,
CC/C=C\CCCCOC(CCC(=O)OCCCCCCCN(CCCO)CCN(CCCCCCCCCOC(=O)C(CCCC)CCCCCC)CCCCCCCCCOC(=O)C(CCCC)CCCCCC)OCCCC/C=C\CC (stereo not drawn) [Example 7-27],81.7 nm,0.11,63.3%,,,
"CC/C=C\CCCCOC(CCC(=O)OCCCCCCCN(CCCCCCCOC(=O)CCC(OCCCC/C=C\CC)OCCCC/C=C\CC)CCCN(CCCO)CCCCCCCC(=O)OCCCCCCCCC)OCCCC/C=C\CC [Example 7-28, ((3-((3-hydroxypropyl)(8-(nonyloxy)-8-oxooctyl)amino)propyl)azanediyl)bis(heptane-7,1-diyl) bis(4,4-bis(((Z)-oct-5-en-1-yl)oxy)butanoate)]",98.8 nm,0.11,49.6%,,,
CC/C=C\CCCCOC(CCC(=O)OCCCCCCCN(CCCO)CCCN(CCCCCCCOC(=O)CCC(OCCCC/C=C\CC)OCCCC/C=C\CC)CCCCCCCOC(=O)CCC(OCCCC/C=C\CC)OCCCC/C=C\CC)OCCCC/C=C\CC [Example 7-29],95.4 nm,0.13,83.2%,,,
